These results are taken from patent US12384808B2, “Modulators of TNF-α activity” (Forward Therapeutics, Inc., priority 2022, dated 2025).

This experiment deals with TNFα (Homo sapiens, UniProt P01375). As to the kind of experiment: TNFα Induced HEK Blue Cellular Assay. The experiment is classed as cell-based. Particulars: HEK Blue TNFα reporter cells, TNFα 100 pg/ml, 24 hrs at 37° C., secreted alkaline phosphatase (QUANTI-Blue) read at 620 nm; read-out: IC50 value. An outline of the steps: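 IC50 fitted with a 4-parameter logistic model from % inhibition, normalised to DMSO controls with and without stimulation. Readout: QUANTI-Blue SEAP at 620 nm after 24 h, 37 °C exposure to TNFα (100 pg/ml final) and test compound at […]–0.5 nM final.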
Sequence of TNFα (P01375 77-233 limits assumed): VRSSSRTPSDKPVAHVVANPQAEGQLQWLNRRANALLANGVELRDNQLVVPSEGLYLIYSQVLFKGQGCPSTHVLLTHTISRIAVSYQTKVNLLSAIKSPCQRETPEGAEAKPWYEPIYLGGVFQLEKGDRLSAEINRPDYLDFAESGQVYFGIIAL
As usually defined, the IC50 is the point on the concentration scale where inhibition reaches its midpoint. For `[2H]C([2H])([2H])N1C(=O)c2cccc(OC(F)F)c2[C@H]2C[C@@H]1c1nc3cc(F)c(-c4ccc(P(C)(C)=O)c(F)c4)cc3n12` [Example 59, (7R,14R)-1-(difluoromethoxy)-11-(4-(dimethylphosphoryl)-3-fluorophenyl)-10-fluoro-6-(methyl-d3)-6,7-dihydro-7,14-methanobenzo[f]benzo[4,5]imidazo[1,2-a][1,4]diazocin-5(14H)-one], the IC50 was < 100 nM.
For the compound `[2H]C([2H])([2H])N1C(=O)c2cccc(OC(F)F)c2[C@H]2C[C@@H]1c1nc3ccc(-c4cc(F)c(P(C)(C)=O)c(F)c4)cc3n12` [Example 60, (7R,14R)-1-(difluoromethoxy)-11-(4-(dimethylphosphoryl)-3,5-difluorophenyl)-6-(methyl-d3)-6,7-dihydro-7,14-methanobenzo[f]benzo[4,5]imidazo[1,2-a][1,4]diazocin-5(14H)-one], the IC50 is < 100 nM.
Turning to `[2H]C([2H])([2H])N1C(=O)c2cccc(OC(F)F)c2[C@H]2C[C@@H]1c1nc3cc(F)c(-c4ccc(P(C)(C)=O)cc4F)cc3n12` [Example 61, (7R,14R)-1-(difluoromethoxy)-11-(4-(dimethylphosphoryl)-2-fluorophenyl)-10-fluoro-6-(methyl-d3)-6,7-dihydro-7,14-methanobenzo[f]benzo[4,5]imidazo[1,2-a][1,4]diazocin-5(14H)-one], the IC50 was < 100 nM.
Consider `CN1C(=O)c2cccc(OC(F)F)c2[C@H]2C[C@@H]1c1nc3ccc(-c4c(F)cc(P(C)(C)=O)cc4F)cc3n12` [Example 62, (1R,11R)-18-(difluoromethoxy)-5-[4-(dimethylphosphoryl)-2,6-difluorophenyl]-12-methyl-2,9,12-triazapentacyclo[9.8.1.0^{2,10}.0^{3,8}.0^{14,19}]icosa-3(8),4,6,9,14(19),15,17-heptaen-13-one], for which the IC50 was < 100 nM.
In the case of `[2H]C([2H])([2H])N1C(=O)c2cccc(OC(F)F)c2[C@H]2C[C@@H]1c1nc3ccc(-c4c(F)cc(P(C)(C)=O)cc4F)cc3n12` [Example 63, (7R,14R)-1-(difluoromethoxy)-11-(4-(dimethylphosphoryl)-2,6-difluorophenyl)-6-(methyl-d3)-6,7-dihydro-7,14-methanobenzo[f]benzo[4,5]imidazo[1,2-a][1,4]diazocin-5(14H)-one] it was < 100 nM.
Regarding `[2H]C([2H])([2H])N1C(=O)c2cccc(OC(F)F)c2[C@H]2C[C@@H]1c1nc3cc(F)c(-c4ccc(P(C)(C)=O)cc4)cc3n12` [Example 64, (7R,14R)-1-(difluoromethoxy)-11-(4-(dimethylphosphoryl)phenyl)-10-fluoro-6-(methyl-d3)-6,7-dihydro-7,14-methanobenzo[f]benzo[4,5]imidazo[1,2-a][1,4]diazocin-5(14H)-one], the IC50 was 100 to 1000 nM.
Under `[2H]C([2H])([2H])N1C(=O)c2cccc(OC(F)F)c2[C@H]2C[C@@H]1c1nc3ccc(-c4ccc(P(C)(C)=O)cc4)cc3n12` [Example 65, (7R,14R)-1-(difluoromethoxy)-11-(4-(dimethylphosphoryl)phenyl)-6-(methyl-d3)-6,7-dihydro-7,14-methanobenzo[f]benzo[4,5]imidazo[1,2-a][1,4]diazocin-5(14H)-one] stands < 100 nM; under `CP(C)(=O)c1ccc(-c2cc3c(cc2F)nc2n3[C@@H]3C[C@H]2NC(=O)c2cccc(OC(F)F)c23)cc1F` [Example 66, (7R,14R)-1-(difluoromethoxy)-11-(4-(dimethylphosphoryl)-3-fluorophenyl)-10-fluoro-6,7-dihydro-7,14-methanobenzo[f]benzo[4,5]imidazo[1,2-a][1,4]diazocin-5(14H)-one], < 100 nM; under `[2H]C([2H])([2H])N1C(=O)c2cccc(OC(F)F)c2[C@H]2C[C@@H]1c1nc3ccc(-c4ccc(CP(C)(C)=O)cc4F)cc3n12` [Example 67, (7R,14R)-1-(difluoromethoxy)-11-(4-((dimethylphosphoryl)methyl)-2-fluorophenyl)-6-(methyl-d3)-6,7-dihydro-7,14-methanobenzo[f]benzo[4,5]imidazo[1,2-a][1,4]diazocin-5(14H)-one], < 100 nM.
Regarding `[2H]C([2H])([2H])N1C(=O)c2cccc(OC(F)F)c2[C@H]2C[C@@H]1c1nc3ccc(-c4ccc(CP(C)(C)=O)c(F)c4)cc3n12` [Example 68, (7R,14R)-1-(difluoromethoxy)-11-(4-((dimethylphosphoryl)methyl)-3-fluorophenyl)-6-(methyl-d3)-6,7-dihydro-7,14-methanobenzo[f]benzo[4,5]imidazo[1,2-a][1,4]diazocin-5(14H)-one], the IC50 is < 100 nM.
In the case of `[2H]C([2H])([2H])N1C(=O)c2cccc(OC(F)F)c2[C@H]2C[C@@H]1c1nc3ccc(-c4cc(F)c(CP(C)(C)=O)c(F)c4)cc3n12` [Example 69, (7R,14R)-1-(difluoromethoxy)-11-(4-((dimethylphosphoryl)methyl)-3,5-difluorophenyl)-6-(methyl-d3)-6,7-dihydro-7,14-methanobenzo[f]benzo[4,5]imidazo[1,2-a][1,4]diazocin-5(14H)-one] it was < 100 nM.
As to `[2H]C([2H])([2H])N1C(=O)c2cccc(OC(F)F)c2[C@H]2C[C@@H]1c1nc3ccc(-c4ccc(CP(C)(C)=O)cc4)cc3n12` [Example 70, (7R,14R)-1-(difluoromethoxy)-11-(4-((dimethylphosphoryl)methyl)phenyl)-6-(methyl-d3)-6,7-dihydro-7,14-methanobenzo[f]benzo[4,5]imidazo[1,2-a][1,4]diazocin-5(14H)-one], the IC50 was < 100 nM.
Under `[2H]C([2H])([2H])N1C(=O)c2cccc(O)c2[C@H]2C[C@@H]1c1nc3ccc(-c4cc(F)c(P(C)(C)=O)cc4F)cc3n12` [Example 71, (7R,14R)-11-(4-(dimethylphosphoryl)-2,5-difluorophenyl)-1-hydroxy-6-(methyl-d3)-6,7-dihydro-7,14-methanobenzo[f]benzo[4,5]imidazo[1,2-a][1,4]diazocin-5(14H)-one] stands 10000 to 30000 nM; under `CP(C)(=O)Cc1ccc(-c2ccc3nc4n(c3c2)[C@@H]2C[C@H]4NC(=O)c3cccc(OC(F)F)c32)cc1F` [Example 72, (7R,14R)-1-(difluoromethoxy)-11-(4-((dimethylphosphoryl)methyl)-3-fluorophenyl)-6,7-dihydro-7,14-methanobenzo[f]benzo[4,5]imidazo[1,2-a][1,4]diazocin-5(14H)-one], < 100 nM.
Under `CN1C(=O)c2cccc(OC(F)F)c2[C@H]2C[C@@H]1c1nc3ccc(-c4cc(F)c(CP(C)(C)=O)cc4F)cc3n12` [Example 73, (7R,14R)-1-(difluoromethoxy)-11-(4-((dimethylphosphoryl)methyl)-2,5-difluorophenyl)-6-methyl-6,7-dihydro-7,14-methanobenzo[f]benzo[4,5]imidazo[1,2-a][1,4]diazocin-5(14H)-one] stands < 100 nM; under `[2H]C([2H])([2H])N1C(=O)c2cccc(OC)c2[C@H]2C[C@@H]1c1nc3ccc(-c4cc(F)c(P(C)(C)=O)cc4F)cc3n12` [Example 74, (7R,14R)-11-(4-(dimethylphosphoryl)-2,5-difluorophenyl)-1-methoxy-6-(methyl-d3)-6,7-dihydro-7,14-methanobenzo[f]benzo[4,5]imidazo[1,2-a][1,4]diazocin-5(14H)-one], 100 to 1000 nM; under `[2H]C([2H])([2H])N1C(=O)c2cccc(OCC)c2[C@H]2C[C@@H]1c1nc3ccc(-c4cc(F)c(P(C)(C)=O)cc4F)cc3n12` [Example 75, (7R,14R)-11-(4-(dimethylphosphoryl)-2,5-difluorophenyl)-1-ethoxy-6-(methyl-d3)-6,7-dihydro-7,14-methanobenzo[f]benzo[4,5]imidazo[1,2-a][1,4]diazocin-5(14H)-one], < 100 nM.
Under `[2H]C([2H])([2H])N1C(=O)c2cccc(OC(F)F)c2[C@H]2C[C@@H]1c1nc3ccc(-c4ccc(CP(C)(C)=O)c(F)c4F)cc3n12` [Example 76, (7R,14R)-1-(difluoromethoxy)-11-(4-((dimethylphosphoryl)methyl)-2,3-difluorophenyl)-6-(methyl-d3)-6,7-dihydro-7,14-methanobenzo[f]benzo[4,5]imidazo[1,2-a][1,4]diazocin-5(14H)-one] stands < 100 nM; under `CN1C(=O)c2cccc(OC(F)F)c2[C@H]2C[C@@H]1c1nc3ccc(-c4cc(F)c(CP(C)(C)=O)c(F)c4)cc3n12` [Example 77, (7R,14R)-1-(difluoromethoxy)-11-(4-((dimethylphosphoryl)methyl)-3,5-difluorophenyl)-6-methyl-6,7-dihydro-7,14-methanobenzo[f]benzo[4,5]imidazo[1,2-a][1,4]diazocin-5(14H)-one], < 100 nM; under `[2H]C([2H])([2H])N1C(=O)c2cccc(OC(F)F)c2[C@H]2C[C@@H]1c1nc3cc(F)c(-c4ccc(CP(C)(C)=O)c(F)c4)cc3n12` [Example 78, (7R,14R)-1-(difluoromethoxy)-11-(4-((dimethylphosphoryl)methyl)-3-fluorophenyl)-10-fluoro-6-(methyl-d3)-6,7-dihydro-7,14-methanobenzo[f]benzo[4,5]imidazo[1,2-a][1,4]diazocin-5(14H)-one], < 100 nM.
Consider `CN1C(=O)c2cccc(OC(F)F)c2[C@H]2C[C@@H]1c1nc3ccc(-c4ccc(CP(C)(C)=O)c(F)c4)cc3n12` [Example 79, (7R,14R)-1-(difluoromethoxy)-11-(4-((dimethylphosphoryl)methyl)-3-fluorophenyl)-6-methyl-6,7-dihydro-7,14-methanobenzo[f]benzo[4,5]imidazo[1,2-a][1,4]diazocin-5(14H)-one], for which the 50% inhibitory concentration (IC50) is < 100 nM.
Under `CN1C(=O)c2cccc(OC(F)F)c2[C@H]2C[C@@H]1c1nc3ccc(-c4ccc(CP(C)(C)=O)cc4F)cc3n12` [Example 80, (7R,14R)-1-(difluoromethoxy)-11-(4-((dimethylphosphoryl)methyl)-2-fluorophenyl)-6-methyl-6,7-dihydro-7,14-methanobenzo[f]benzo[4,5]imidazo[1,2-a][1,4]diazocin-5(14H)-one] stands < 100 nM.
